Like-named read-outs stand apart in the source and are kept apart here.
Legend:
[1] = system: HL-1; assay: Resazurine cytotoxicity assay (metabolic activity), HL-1; format: cell-based, mouse; conditions: for MVC / EC50: HL-1, 24 h; for MVC: maximal viability concentration; for Cytotoxicity-Classification: HL-1, 24 h exposure; for EC50: Mus musculus, metabolic activity
Description: (§1) For a pre-screening of the compounds they were first tested in human hepatocellular carcinoma cells (HepG2 cells)for 24 h and to gain further information about the cytotoxic potential more specific target tissues like the mouse cardiomyocytes HL-1 and primary rat cardiomyocytes were used additionally. […] The toxicity classification has been determined by using drugs currently utilized in clinic with known toxicity profile

[2] = system: HL-1 cells; assay: Apoptosis of ischemic HL-1 cardiomyocytes (TUNEL assay, flow cytometer); format: cell-based, mouse; conditions: 100 µM; for Relative rate of apoptosis normalised to control [%]: 8 h ischemia (glucose deficient medium + hydrogen peroxide), 8h Ischemia alone 701.6, 8h Control 100
Description: To establish a cardiomyocytes based apoptosis assay, which mimics the post-ischemic damage observed after myocardial infarction, we have utilized a cardiac muscle cell line, HL-1 cells, derived from the AT-1 mouse atrial cardiomyocyte tumor lineage. The HL-1 cells were incubated in glucose deficient medium in the presence of hydrogen peroxide and either in presence or absence of compounds of the invention Apoptosis rate of ischemic HL-1 cells was normalised to the apoptosis rate of the 8h control cells under non-ischemic conditions, thus incubated with normal concentration of glucose in the absence of hydrogen peroxide. Both non-ischemic and ischemic HL-1 cultures were harvested after 8 hours. […] The apoptotic rates were then evaluated by TUNEL assay, a method for detecting DNA strand breaks in apoptotic cells by flow cytometer The solvent of the compounds, i.e DMSO, has no influence on the apoptosis rate. […] Effect of newly synthesized compounds with Rac1 inhibitory activity on apoptosis rate in HL-1 cells normalized to control (TUNEL-assay) The data are representative of two experiments.

[3] = system: primary rat cardiomyocytes; assay: Resazurine cytotoxicity assay (metabolic activity), primary rat cardiomyocytes; format: cell-based; conditions: for MVC / EC50: 24 h; for MVC: maximal viability concentration; for Cytotoxicity-Classification: 24 h exposure; for EC50: Cardiomyocyte, metabolic activity
Description: as §1

[4] = tissue homogenate, 60 min, 10 µM
Description: (§3) The basic incubation mixture with total volume of 500 µl consisted of the following components. 100 µl liver homogenate, compound in DMSO (dimethyl sulfoxide) and 1 mM NADPH (reduced nicotinamide adenine dinucleotide phosphate), 1 mM UDPGA (uridine 5'-diphosphoglucuronic acid), 1 mM PAPS (3'-phosphoadenosine-5'-phosphosulfate) and 1 mM GSH (glutathione). The substrate concentration used was 10 µM. Two parallel incubations, one with cofactors and one without, were made. Final DMSO concentration in the incubation was 1 µM. […] Reaction was started by addition of a cofactor mixture and stopped by adding 250 µl of ice-cold acetonitrile.

[5] = system: HepG2 cells; assay: Resazurine cytotoxicity assay (metabolic activity), HepG2; format: cell-based, human; conditions: for MVC / EC50: HepG2, 24 h; for MVC: maximal viability concentration; for Cytotoxicity-Classification: HepG2, 24 h exposure; for EC50: Homo sapiens, metabolic activity, read-out: EC50
Description: as §1

[6] = system: Caco2; assay: Caco2 monolayer permeation; format: in vitro ADME, human; conditions: Caco2 monolayers, 90 min, start concentration 50 µM
Description: (§2) The permeation characteristics of the Rac1 inhibitors were determined first in the artificial system PAMPA (Parallel Artificial Membrane Permeability Assay) which uses a membrane covered with a lipid to simulate the lipid bilayer of various cell types, including intestinal epithelium and second in vitro across Caco2, a human colon carcinoma cell line seeded as monolayers onto polycarbonate membranes. The PAMPA is able to predict the ability of a compound to permeate by a passive transcellular transport through an artificial lipid layer assembled on a membrane and also allows a classification into low (flux <20%), medium (20%≤ flux ≤70%), and high (flux >70%) absorbing substances. The Caco2 assay provides a well-established in vitro model to predict the human intestinal absorption.

[7] = Caco2 monolayer permeation; format: in vitro ADME, human; conditions: human, start concentration 50 µM; for Papp at 90 min, 50 µM: Caco-2, Caco2 monolayers
Description: as §2

[8] = target: CYP2D6 (Homo sapiens, UniProt P10635); assay: Inhibition of CYP2D6 activity; format: biochemical; conditions: read-out: CYP2D6 activity inhibited by
CYP2D6, sequence (P10635 whole entry): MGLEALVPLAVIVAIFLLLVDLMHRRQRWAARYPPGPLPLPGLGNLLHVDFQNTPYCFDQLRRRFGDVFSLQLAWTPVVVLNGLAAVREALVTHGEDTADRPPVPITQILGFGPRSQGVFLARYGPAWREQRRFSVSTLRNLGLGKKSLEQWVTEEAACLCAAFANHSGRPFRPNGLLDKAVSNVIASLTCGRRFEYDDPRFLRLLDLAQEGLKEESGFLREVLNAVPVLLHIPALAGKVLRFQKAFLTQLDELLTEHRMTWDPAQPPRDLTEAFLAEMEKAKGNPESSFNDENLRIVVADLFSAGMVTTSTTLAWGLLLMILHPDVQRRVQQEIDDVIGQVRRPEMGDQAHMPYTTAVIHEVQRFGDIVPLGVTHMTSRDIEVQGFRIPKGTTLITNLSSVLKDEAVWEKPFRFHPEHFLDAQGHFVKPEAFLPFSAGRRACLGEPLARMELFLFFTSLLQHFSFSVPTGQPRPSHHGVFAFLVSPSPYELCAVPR

[9] = Substrate depletion in human liver microsomes and in vitro - in vivo extrapolation; format: in vitro ADME; conditions: for CLh: hepatic clearance; for CLh / CLint / CLtot: extrapolated to human from substrate depletion (1 µM, 60 min); for half-life at 1 µM: human, human liver microsomes; for CLint: intrinsic clearance (whole liver); for CLtot: total (systemic) clearance
Description: The remaining peak areas after 60 minutes incubation was also determined after incubation with increasing concentrations of compounds CWB021/01039 and CWB024/02054. […] The disappearances for both study compounds were also clearly cofactor dependent and thus metabolism related Calculations of pharmacokinetic (PK) parameters on the basis of substrate depletion for both study compounds (1 µM, 60 min time point) in human liver microsomes are shown in Table 6. Table 6. Kinetic in vitro - in vivo extrapolations of study compound clearances and half-lifes in human, wherein: intrinsic clearance (whole liver) = CLint; hepatic clearance = CLH; total (systemic) clearance = CLtotal; half-life = t1/2.

[10] = PAMPA (Parallel Artificial Membrane Permeability Assay); format: in vitro ADME; conditions: start concentration 250 µM, diffusion period 16 h
Description: as §2
The flux rate of the compounds of the invention and the reference NSC23766 was measured from a donor compartment to an acceptor compartment across the lipid layer at a start concentration of 250 µM over a diffusion period of 16 h.

[11] = target: T1, Rac1 (Homo sapiens, UniProt P63000); assay: G-LISA assay of intracellular Rac1-GTP in PDGF-BB stimulated human smooth muscle cells; format: cell-based; conditions: for remaining activity at 50 µM: Concentration 50 µm, 4 hours incubation, then PDGF-BB 10 ng/ml, Rac1-GTP detected relative to control (100), lower = more inhibition, read-out: Rac1 inhibitory activity (% vs control); for inhibitory action on Rac1 activity: G-LISA, 50 µM, statement in words
T1 construct: endogenous in cells; host or cells: human cultured smooth muscle cells, stimulated with PDGF-BB
Text: The intracellular amount of Rac1-GTP has been determined using the GLISA™ assay (Cytoskeleton, Inc). The GLISA™ assay uses a 96-well plate coated with RBD domain of Rac1-family effector protein PAK1. […] A significant inhibition on Rac1 activity should decrease the intracellular levels of Rac1-GTP and therefore reduce the percentage of Rac1-GTP detected compared to control untreated cells.

[12] = system: major drug metabolising CYPs (including CYP2C19, CYP2D6, CYP3A4); assay: Inhibition of major drug metabolising CYP activities
Description: The probe metabolites as in experimental For CYP2C19, a=omeprazole demethylation and b=omeprazole 5-hydroxylation; for CYP3A4, a=omeprazole 3-hydroxylation, b= omeprazole sulfonation, c=testosterone 6β-hydroxylation and d= midazolam 1'-hydroxylation.

[13] = Metabolic stability and metabolite identification in liver homogenates with cofactors (LC/MS); conditions: liver homogenate with cofactors, 10 µM substrate, 60 min
Description: as §3

[14] = target: T1, Rac1; assay: Classic pull down assay of Rac1-GTP in human cells; format: cell-based; conditions: 50 and 100 µM; Figure 2
Description: Thus, a classic pull down assay was also performed in human cells incubated with 50 and 100 µM concentration of CWB024/02054

[15] = 0.1 µM initial substrate concentration
[16] = 1 µM initial substrate concentration
[17] = 10 µM initial substrate concentration

| Compound | MVC [1] [µM] | Cytotoxicity-Classification [1] | EC50 [1] [µM] | Relative rate of apoptosis normalised to control [%] [2] [%] | MVC [3] [µM] | Cytotoxicity-Classification [3] | EC50 [3] [µM] | remaining LC/MS peak area (relative to 0 min incubation samples, %) [4] | MVC [5] [µM] | Cytotoxicity-Classification [5] | EC50 [5] [µM] | Caco2 Classification [6] | Papp at 90 min, 50 µM [7] [×10⁻⁶ cm/s] | inhibition at 10 µM [8] [%] | remaining peak area after 60 minutes incubation [9, 15] [%] | remaining peak area after 60 minutes incubation [9, 16] [%] | remaining peak area after 60 minutes incubation [9, 17] [%] | PAMPA classification [10] | PAMPA flux [%] ± SD [10] [%] | inhibitory action on Rac1 activity [11] | other results |
| --- | --- | --- | --- | --- | --- | --- | --- | --- | --- | --- | --- | --- | --- | --- | --- | --- | --- | --- | --- | --- | --- |
| CCN(CC)CCCC(C)Nc1nccc(Nc2ccc3[nH]c(C)cc3c2)n1 (stereo not shown) [CWB021/01039, N2-(4-Diethylamino-1-methyl-butyl)-N4-(2-methyl-1H-indol-5-yl)-pyrimidine-2,4-diamine] | 31.2 | ++ (10 µM < EC50 ≤ 100 µM, medium (++)) | 24 | 511.6 | 31.3 | ++ (10 µM < EC50 ≤ 100 µM, medium (++)) | 13 | 33-41% | 7.8 | ++ (10 µM < EC50 ≤ 100 µM, medium (++)) | 21 | high (compounds with a Papp >10 are predicted to be well absorbed (70 - 100%)) | 17.1 ± 12.5 | 35 | 69 | 81 | 95 | low (low (flux <20%)) | 5±1 | significant end efficient inhibitory action | CLh [9]: 15.14 L/h; half-life at 1 µM [9]: 7.3 h; CLint [9]: 0.31 L/min; CLtot [9]: 15.32 L/h; remaining activity at 50 µM [11]: 81.1%; IC50 [12]: > 10 µM |
| CCN(CC)CCCC(C)Nc1nccc(Nc2cnc3ccccc3c2)n1 (stereo not shown) [CWB022/02052, N2-(4-Diethylamino-1-methyl-butyl)-N4-quinolin-3-yl-pyrimidine-2.4-diamine] | 31.2 | ++ (10 µM < EC50 ≤ 100 µM, medium (++)) | 60 | 607.8 | 7.8 | ++ (10 µM < EC50 ≤ 100 µM, medium (++)) | 15 | – | 7.8 | ++ (10 µM < EC50 ≤ 100 µM, medium (++)) | 32 | medium (compounds with Papp between 1 and 10 are moderately absorbed (20 - 70%)) | – | – | – | – | – | medium (medium (20%≤ flux ≤70%)) | 34±4 | significant end efficient inhibitory action | remaining LC/MS peak area (relative to 0 min incubation samples, %) [13]: 5%; Papp at 1.5 h, 50 µM ([7]; Caco-2, Caco2 monolayers, 90 min): 8.9 ± 2.7 ×10⁻⁶ cm/s |
| CCN(CC)CCCC(C)Nc1nccc(Nc2ccc3[nH]ccc3c2)n1 (stereo not shown) [CWB024/02054, N2-(4-Diethylamino-1-methyl-butyl)-N4-(1H-indol-5-yl)-pyrimidine-2,4-diamine] | 7.8 | ++ (10 µM < EC50 ≤ 100 µM, medium (++)) | 56 | 319.4 | 1.9 | ++ (10 µM < EC50 ≤ 100 µM, medium (++)) | 17 | about 91% | 7.8 | ++ (10 µM < EC50 ≤ 100 µM, medium (++)) | 33 | high (compounds with a Papp >10 are predicted to be well absorbed (70 - 100%)) | 32.1 ± 12.4 | 30 | 76 | 87 | 86 | low (low (flux <20%)) | 6±2 | significant end efficient inhibitory action | reduction of relative apoptosis ([2]; versus 8 h ischemia): approximately 50%; CLh [9]: 10.63 L/h; half-life at 1 µM [9]: 10.3 h; CLint [9]: 0.2 L/min; CLtot [9]: 10.81 L/h; remaining activity at 50 µM [11]: 58.3%; reduced the intracellular content of Rac1-GTP [14]: over 90%; IC50 [12]: > 10 µM |

Source: patent publication EP2241555A1, “New RAC1 inhibitors as potential pharmacological agents for heart failure treatment” (UNIVERSITA' DEGLI STUDI DI MILANO, priority 2009, dated 2010)
